In patent US20230250123A1, “GUT MICROBIOTA BIOACTIVATED PDE4 INHIBITOR PRECURSORS” (Giiant Pharma Inc., priority 2020, published 2023):

Assays:
[1] = Negative control: incubation in mouse feces extract supernatant inactivated by boiling; type: in vitro ADME; details: 24 hours, mouse feces supernatant boiled 10 minutes (no enzyme activities)
Procedure: (§1) In vitro rate of glycoside prodrugs hydrolysis. The metabolic stability of prodrug candidates to release the parent PDE4 inhibitor could be assessed in vitro according, but not restricted, to the following protocol: feces were collected overnight on a mixture of dry and wet ice in a metabolic cage. Ten volumes (v/w; 30 mL) of 100 mM phosphate buffer (pH 6.5) were added to 3 g of freshly collected rodent feces. The mixture was homogenized with a Stomacher Circulator 400 (2 × 1 min-cycles at 225 rpm). The mixture was transferred to a 50 mL tubes, centrifuged at 10 000xg for 10 min (4° C.) and the supernatant was passed through a 0.45 µm-filter. In a 96 deep-well plate, 198 µL of feces supernatant were aliquoted in 2 wells per compound. Each compound, including positive control, was tested in duplicate. Then 2 µL of 10 mM stock solution of each test compound were spiked in individual wells (duplicate) at a final concentration of 100 µM and samples were sealed and mixed 30 sec at 1000 rpm using a vortexer. Samples were incubated at 37° C. for the desired time in the Thermomixer with constant agitation (300 rpm). At desired time-point, 25 µL of reaction mixture was added to 225 µL of ice-cold quenching solution (acetonitrile + 0.1% (v/v) formic acid) to stop the bacterial enzymatic activity. The quenched incubates were mixed and centrifuged 10 min at 21 000xg at 4° C. A real t0 (no metabolism, 100% total recovery of unchanged prodrug) was generated by adding 22.5 µL of feces supernatant to 225 µL of ice-cold quenching solution (acetonitrile + 0.1% (v/v) formic acid). Then 2.5 µL of 1 mM solution of each test compounds was added, sealed, mixed thoroughly and centrifuged 10 min at 21 000xg at 4° C. All samples, including analytical standards, were analyzed by LC-MS/MS to measure the concentration of the parent PDE4 inhibitor released and the concentration of the corresponding prodrug remaining. […]

[2] = Bidirectional Caco-2 permeability assay; type: in vitro ADME; details: human; Caco-2, 10 µM, apical pH 6.0 / basolateral pH 7.4, average of 2 determinations
Procedure: In vitro glycoside prodrug permeability assessment. The permeability of the glycoside prodrugs were measured using the bidirectional Caco-2 assay. Caco-2 cells were seeded onto permeable polycarbonate supports in 12-well Costar Transwell plates and allowed to grow and differentiate for 21-25 days. On day 24, culture medium (DMEM supplemented with 10% FBS, 1% non-essential amino acids and penicillin/streptomycin) was removed from both sides of the transwell inserts and cells were rinsed with warm HBSS. […] The buffer in the donor chamber (apical side for A-to-B assay, basolateral side for B-to-A assay) was removed and replaced with the working solution (10 µM test article in transport buffer). The plates were then placed at 37° C. under light agitation. At designated time points (30, 60 and 90 min); an aliquot of transport buffer from the receiver chamber was removed and replenished with fresh transport buffer. Samples were quenched with ice-cold CH3CN containing internal standard and then centrifuged to precipitate the protein. Resulting supernatants were further diluted with 50/50 ACN/H2O (H2O only for Atenolol) and submitted for LC/MS/MS analysis. […] Atenolol and propranolol were tested as low and […] permeability references. […] The apparent permeability (Papp, measured in cm/s) of a compound is determined according to the following formula: […]
Where dQ/dt is the net rate of appearance in the receiver compartment, A is the area of the Transwell measured in cm^2 (1.12 cm^2), C0 is the initial concentration of compound added to the donor chamber and 60 is the conversion factor for the minute to second.

[3] = In vitro rate of glycoside prodrug hydrolysis in feces supernatant, mouse; type: in vitro ADME; details: 100 µM, 37° C., pH 6.5, 24 hr
Procedure: (§2) In vitro rate of glycoside prodrugs hydrolysis. The metabolic stability of prodrug candidates to release the parent PDE4 inhibitor could be assessed in vitro according, but not restricted, to the following protocol: feces were collected overnight on a mixture of dry and wet ice in a metabolic cage. Ten volumes (v/w; 30 mL) of 100 mM phosphate buffer (pH 6.5) were added to 3 g of freshly collected rodent feces. The mixture was homogenized with a Stomacher Circulator 400 (2 × 1 min-cycles at 225 rpm). The mixture was transferred to a 50 mL tubes, centrifuged at 10 000xg for 10 min (4° C.) and the supernatant was passed through a 0.45 µm-filter. In a 96 deep-well plate, 198 µL of feces supernatant were aliquoted in 2 wells per compound. Each compound, including positive control, was tested in duplicate. Then 2 µL of 10 mM stock solution of each test compound were spiked in individual wells (duplicate) at a final concentration of 100 µM and samples were sealed and mixed 30 sec at 1000 rpm using a vortexer. Samples were incubated at 37° C. for the desired time in the Thermomixer with constant agitation (300 rpm). At desired time-point, 25 µL of reaction mixture was added to 225 µL of ice-cold quenching solution (acetonitrile + 0.1% (v/v) formic acid) to stop the bacterial enzymatic activity. The quenched incubates were mixed and centrifuged 10 min at 21 000xg at 4° C. A real t0 (no metabolism, 100% total recovery of unchanged prodrug) was generated by adding 22.5 µL of feces supernatant to 225 µL of ice-cold quenching solution (acetonitrile + 0.1% (v/v) formic acid). Then 2.5 µL of 1 mM solution of each test compounds was added, sealed, mixed thoroughly and centrifuged 10 min at 21 000xg at 4° C. All samples, including analytical standards, were analyzed by LC-MS/MS to measure the concentration of the parent PDE4 inhibitor released and the concentration of the corresponding prodrug remaining. A set criteria of 100% recovery is targeted where the summation of the % of prodrug remaining and the % of parent PDE4 inhibitor released should be 100% with an experimental error tolerance of ± 20%. When prodrugs represented by Formula (I) were incubated 24 hours under the conditions described above using mouse, rat and dog feces, the glycoside prodrugs were hydrolyzed to release the corresponding parent PDE4 inhibitor III (Table 3). As a negative control, when compound 4, 10 and 21 were incubated 24 hours under the conditions described above but in the absence of enzyme activities, using mouse feces extract supernatant inactivated by boiling the supernatant 10 minutes, 100% of the prodrugs were recovered unchanged.

[4] = In vitro rate of glycoside prodrug hydrolysis in feces supernatant, rat; type: in vitro ADME; details: 100 µM, 37° C., pH 6.5, 24 hr
Procedure: as §2

β-D-glucuronidase = test: Positive control: incubation with β-D-glucuronidase in phosphate buffer; type: in vitro ADME; details: β-D-glucuronidase 50U/mL, phosphate buffer pH 6.5, 37° C., 24 hours
[5] = test system: type-IV cAMP-specific phosphodiesterases; test: Inhibitory potency against PDE4 isozymes (isozyme not given); type: biochemical; details: sample contaminated with 0.17% of IIIa, which accounts for 100% of the potency recorded; read-out: IC50 (PDE4, isozyme not stated)
[6] = In vitro rate of glycoside prodrug hydrolysis in feces supernatant, dog; type: in vitro ADME; details: 100 µM, 37° C., pH 6.5, 24 hr
Procedure: as §1, with “At desired time-point, 25 µL of reaction mixture was added to 225 µL of ice-cold quenching solution (acetonitrile + 0.1% (v/v) formic acid) to stop the bacterial enzymatic activity. The quenched incubates were mixed and centrifuged 10 min at 21 000xg at 4° C. A real t0 (no metabolism, 100% total recovery of unchanged prodrug) was generated by adding 22.5 µL of feces supernatant to 225 µL of ice-cold quenching solution (acetonitrile + 0.1% (v/v) formic acid). Then 2.5 µL of 1 mM solution of each test compounds was added, sealed, mixed thoroughly and centrifuged 10 min at 21 000xg at 4° C.” left out

PDE4B1 = PDE4B1 (Homo sapiens, UniProt Q07343); test: Inhibitory potency against PDE4 isozymes (FAM-cAMP fluorescence polarization), PDE4B1
Chain of PDE4B1 (Q07343 whole entry, species assumed): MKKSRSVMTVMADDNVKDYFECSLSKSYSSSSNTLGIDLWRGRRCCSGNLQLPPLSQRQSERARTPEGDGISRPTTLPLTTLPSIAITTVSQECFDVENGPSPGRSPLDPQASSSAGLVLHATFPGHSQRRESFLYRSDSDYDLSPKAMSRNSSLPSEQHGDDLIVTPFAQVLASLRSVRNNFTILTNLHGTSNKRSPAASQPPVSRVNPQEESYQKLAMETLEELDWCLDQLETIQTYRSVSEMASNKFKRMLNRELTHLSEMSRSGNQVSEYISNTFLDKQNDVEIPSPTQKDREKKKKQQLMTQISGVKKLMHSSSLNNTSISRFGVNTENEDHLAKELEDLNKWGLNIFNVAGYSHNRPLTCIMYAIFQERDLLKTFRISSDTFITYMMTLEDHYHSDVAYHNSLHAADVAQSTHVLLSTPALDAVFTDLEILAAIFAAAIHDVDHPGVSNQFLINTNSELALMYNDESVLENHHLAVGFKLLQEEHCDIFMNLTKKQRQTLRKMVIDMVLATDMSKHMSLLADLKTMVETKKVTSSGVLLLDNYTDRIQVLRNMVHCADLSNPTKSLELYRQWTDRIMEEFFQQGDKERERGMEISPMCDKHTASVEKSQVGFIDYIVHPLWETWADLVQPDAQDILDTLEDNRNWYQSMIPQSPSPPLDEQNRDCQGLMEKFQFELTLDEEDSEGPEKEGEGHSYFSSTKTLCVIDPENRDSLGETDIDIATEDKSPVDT

PDE4D2 = PDE4D2 (Homo sapiens, UniProt Q08499); test: Inhibitory potency against PDE4 isozymes (FAM-cAMP fluorescence polarization), PDE4D2
Chain of PDE4D2 (Q08499 303-809 limits assumed): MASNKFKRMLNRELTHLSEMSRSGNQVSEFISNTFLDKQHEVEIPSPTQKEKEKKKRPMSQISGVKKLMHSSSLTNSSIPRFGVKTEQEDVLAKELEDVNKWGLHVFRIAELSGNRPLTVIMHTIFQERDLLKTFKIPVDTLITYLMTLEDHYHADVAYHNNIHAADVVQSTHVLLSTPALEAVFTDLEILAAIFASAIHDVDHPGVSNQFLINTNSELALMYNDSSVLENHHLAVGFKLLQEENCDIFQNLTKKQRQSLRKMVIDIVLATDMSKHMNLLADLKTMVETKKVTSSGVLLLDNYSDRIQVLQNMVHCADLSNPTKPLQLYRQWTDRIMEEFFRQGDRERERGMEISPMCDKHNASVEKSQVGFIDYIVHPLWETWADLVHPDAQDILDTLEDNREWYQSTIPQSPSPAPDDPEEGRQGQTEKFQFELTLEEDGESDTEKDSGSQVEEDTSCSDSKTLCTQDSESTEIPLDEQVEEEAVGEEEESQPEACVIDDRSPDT

PDE4A1A = PDE4A1A (Homo sapiens, UniProt P27815); test: Inhibitory potency against PDE4 isozymes (FAM-cAMP fluorescence polarization), PDE4A1A
Chain of PDE4A1A (P27815 1-647 isoform P27815-4): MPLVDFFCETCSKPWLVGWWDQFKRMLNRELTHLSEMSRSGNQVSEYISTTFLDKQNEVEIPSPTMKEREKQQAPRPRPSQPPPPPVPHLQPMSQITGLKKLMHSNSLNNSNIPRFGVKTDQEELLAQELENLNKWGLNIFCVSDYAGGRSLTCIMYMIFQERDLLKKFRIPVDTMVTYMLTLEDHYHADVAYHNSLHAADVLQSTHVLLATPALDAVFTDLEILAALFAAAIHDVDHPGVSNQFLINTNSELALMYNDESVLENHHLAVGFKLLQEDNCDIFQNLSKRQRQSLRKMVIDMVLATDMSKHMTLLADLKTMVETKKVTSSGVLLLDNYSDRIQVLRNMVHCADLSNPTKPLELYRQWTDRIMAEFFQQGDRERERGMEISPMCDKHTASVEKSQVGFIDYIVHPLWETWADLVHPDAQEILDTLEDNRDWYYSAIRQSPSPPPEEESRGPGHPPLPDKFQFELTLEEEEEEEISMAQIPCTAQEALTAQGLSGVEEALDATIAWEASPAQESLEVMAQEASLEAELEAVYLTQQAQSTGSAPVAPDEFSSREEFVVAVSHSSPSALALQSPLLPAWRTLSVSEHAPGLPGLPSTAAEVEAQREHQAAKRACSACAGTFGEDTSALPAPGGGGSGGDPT

[7] = test system: LPS-induced TNFα in human whole blood; test: LPS-induced TNFα assay in human whole blood; type: cell-based; details: human whole blood from 12 healthy volunteers, LPS 1 µg/mL, 24 h; read-out: average IC50, TNFα inhibition
Procedure: TNFα inhibition assay protocol. Potency of PDE4 inhibitors in the LPS-induced TNFα assay in human whole blood was measured using the following protocol: fresh blood is collected in heparinized tubes by venipuncture from healthy human volunteers (male and female). These subjects should not have apparent inflammatory conditions, no symptoms of bacterial/viral infection, no fever and should not take any NSAIDs for at least 1 week prior to blood collection. Blood from each donor was dispensed in a 96-deep well plate, 500 µL per well. Blood was pre-incubated with either 2 µL of vehicle (DMSO) or test compound at 37° C. /5% CO2 for 15 min. […] Duplicate independent incubations were performed for each inhibitor concentration with blood from each donor. Appropriate PBS controls (no LPS) were used as blanks (4 wells) while blood samples stimulated with LPS controls (no PDE4 inhibitor) served as positive controls (4 wells). […] Plasma TNFα was quantified by ELISA (Invitrogen, Frederick, MD, USA) following the manufacturer’s instructions. […] Assay plates were read on an Infinite F200 PRO-Tecan reader at 450 nm. Absorbance values were converted to % inhibition based on positive and negative control values on each plate, and resulting % inhibition data were fit to a four-parameter logistic by nonlinear regression using GraphPad Prism (version 6.00, GraphPad Software, Inc., La Jolla, CA, USA). […]

SMILES: CC(C)(O)c1ccc([C@@H](Cc2ccc(OC3O[C@H](CO)[C@@H](O)[C@H](O)[C@H]3N)nc2)c2ccc(OC(F)F)c(OC3CC3)c2)cn1 (mixture of isomers) [Compound 21, (2R,3S,4R,5R)-5-amino-6-((5-((S)-2-(3-cyclopropoxy-4-(difluoromethoxy)phenyl)-2-(6-(2-hydroxypropan-2-yl)pyridin-3-yl)ethyl)pyridin-2-yl)oxy)-2-(hydroxymethyl)tetrahydro-2H-pyran-3,4-diol]
- prodrug recovered unchanged [1]: 100%

SMILES: CC(C)(O)c1ccc([C@@H](Cc2ccc(O[C@@H]3O[C@H](CO)[C@@H](O)[C@H](O)[C@H]3O)nc2)c2ccc(OC(F)F)c(OC3CC3)c2)cn1 [Compound 4, (2S,3R,4S,5S,6R)-2-((5-((S)-2-(3-cyclopropoxy-4-(difluoromethoxy)phenyl)-2-(6-(2-hydroxypropan-2-yl)pyridin-3-yl)ethyl)pyridin-2-yl)oxy)-6-(hydroxymethyl)tetrahydro-2H-pyran-3,4,5-triol]
- Papp A→B at 10 µM [2]: 0.08 ×10⁻⁶ cm/s
- Prodrug Remaining @ 24 hr (%) [3]: 0.1%
- Prodrug Remaining @ 24 hr (%) [4]: 0.0%
- prodrug recovered unchanged [1]: 100%

SMILES: CC(=O)OC[C@H]1O[C@@H](Oc2ccc(C[C@H](c3ccc(C(C)(C)O)nc3)c3ccc(OC(F)F)c(OC4CC4)c3)cn2)[C@H](O)[C@@H](OC(C)=O)[C@@H]1OC(C)=O [Compound 5, (2R,3R,4R,5R,6S)-2-(acetoxymethyl)-6-((5-((S)-2-(3-cyclopropoxy-4-(difluoromethoxy)phenyl)-2-(6-(2-hydroxypropan-2-yl)pyridin-3-yl)ethyl)pyridin-2-yl)oxy)-5-hydroxytetrahydro-2H-pyran-3,4-diyl diacetate]
- Papp A→B at 10 µM [2]: 0.9 ×10⁻⁶ cm/s
- Prodrug Remaining @ 24 hr (%) [3]: 0.0%
- Prodrug Remaining @ 24 hr (%) [4]: 0.0%

SMILES: CC(C)(O)c1ccc([C@@H](Cc2ccc(O[C@@H]3O[C@H](C(=O)[O-])[C@@H](O)[C@H](O)[C@H]3O)nc2)c2ccc(OC(F)F)c(OC3CC3)c2)cn1.[Li+] [Compound 9, lithium (2S,3S,4S,5R,6S)-6-((5-((S)-2-(3-cyclopropoxy-4-(difluoromethoxy)phenyl)-2-(6-(2-hydroxypropan-2-yl)pyridin-3-yl)ethyl)pyridin-2-yl)oxy)-3,4,5-trihydroxytetrahydro-2H-pyran-2-carboxylate]
- Prodrug Remaining @ 24 hr (%) [3]: 3.3%
- prodrug recovered unchanged (β-D-glucuronidase): 2%
- Prodrug Remaining @ 24 hr (%) [4]: 4.2%

SMILES: N[C@H]1[C@H](Oc2ccc(C[C@@H](c3ccc(OC(F)F)c(OC4CC4)c3)c3cnc(C(O)(C(F)(F)F)C(F)(F)F)s3)cn2)O[C@H](CO)[C@@H](O)[C@@H]1O [Compound 22, (2R,3S,4R,5R,6S)-5-amino-6-((5-((S)-2-(3-cyclopropoxy-4-(difluoromethoxy)phenyl)-2-(2-(1,1,1,3,3,3-hexafluoro-2-hydroxypropan-2-yl)thiazol-5-yl)ethyl)pyridin-2-yl)oxy)-2-(hydroxymethyl)tetrahydro-2H-pyran-3,4-diol]
- IC50 [5]: > 100 nM
- Papp A→B at 10 µM [2]: 0.2 ×10⁻⁶ cm/s
- Prodrug Remaining @ 24 hr (%) [3]: 62%

SMILES: CC(C)(O)c1ccc([C@@H](Cc2ccc(O[C@@H]3O[C@H](CO)[C@@H](O)[C@H](O)[C@H]3N)nc2)c2ccc(OC(F)F)c(OC3CC3)c2)cn1 [Compound 23, (2R,3S,4R,5R,6S)-5-amino-6-((5-((S)-2-(3-cyclopropoxy-4-(difluoromethoxy)phenyl)-2-(6-(2-hydroxypropan-2-yl)pyridin-3-yl)ethyl)pyridin-2-yl)oxy)-2-(hydroxymethyl)tetrahydro-2 H-pyran-3,4-diol]
- Prodrug Remaining @ 24 hr (%) [3]: 65%
- Prodrug Remaining @ 24 hr (%) [6]: 75%

SMILES: C[N+](C)(C)[C@H]1[C@H](Oc2ccc(C[C@@H](c3ccc(OC(F)F)c(OC4CC4)c3)c3cnc(C(O)(C(F)(F)F)C(F)(F)F)s3)cn2)O[C@H](CO)[C@@H](O)[C@@H]1O.[I-] [Compound 26, (2S,3R,4R,5S,6R)-2-((5-((S)-2-(3-cyclopropoxy-4-(difluoromethoxy)phenyl)-2-(2-(1,1,1,3,3,3-hexafluoro-2-hydroxypropan-2-yl)thiazol-5-yl)ethyl)pyridin-2-yl)oxy)-4,5-dihydroxy-6-(hydroxymethyl)-N,N,N-trimethyltetrahydro-2H-pyran-3-aminium iodide]
- Papp A→B at 10 µM [2]: 2.8 ×10⁻⁶ cm/s
- Prodrug Remaining @ 24 hr (%) [3]: 96%

SMILES: CC(C)(O)c1ccc([C@@H](Cc2ccc(O[C@@H]3O[C@H](CO)[C@@H](O[C@@H]4O[C@H](CO)[C@@H](O)[C@H](O)[C@H]4O)[C@H](O)[C@H]3O)nc2)c2ccc(OC(F)F)c(OC3CC3)c2)cn1 [Compound 31, (2S,3R,4S,5S,6R)-2-(((2R,3S,4R,5R,6S)-6-((5-((S)-2-(3-cyclopropoxy-4-(difluoromethoxy)phenyl)-2-(6-(2-hydroxypropan-2-yl)pyridin-3-yl)ethyl)pyridin-2-yl)oxy)-4,5-dihydroxy-2-(hydroxymethyl)tetrahydro-2H-pyran-3-yl)oxy)-6-(hydroxymethyl)tetrahydro-2H-pyran-3,4,5-triol]
- Papp A→B at 10 µM [2]: 0.02 ×10⁻⁶ cm/s
- Prodrug Remaining @ 24 hr (%) [4]: 0.6%

SMILES: O=c1ccc(C[C@@H](c2ccc(OC(F)F)c(OC3CC3)c2)c2cnc(C(O)(C(F)(F)F)C(F)(F)F)s2)c[nH]1 [IIIa, (S)-5-(2-(3-cyclopropoxy-4-(difluoromethoxy)phenyl)-2-(2-(1,1,1,3,3,3-hexafluoro-2-hydroxypropan-2-yl)thiazol-5-yl)ethyl)pyridin-2(1H)-one]
- IC50 (PDE4B1): < 10 nM
- Papp A→B at 10 µM [2]: 19.1 ×10⁻⁶ cm/s
- IC50 (PDE4D2): < 10 nM
- IC50 (PDE4A1A): < 10 nM
- IC50 [7]: < 50 nM
